Experimental data: US20250108032A1, “METHODS OF TREATING TYPE 1 DIABETES AND KIDNEY DISEASE” (LEXICON PHARMACEUTICALS, INC., priority 2023, published 2025)

Legend:
[1] = tested on: adult patients with type 1 diabetes mellitus (overall and CKD cohorts); test: Pooled inTandem1 and inTandem2 double-blind clinical studies, sotagliflozin adjunct to optimized insulin; format: in vivo, human; details: for No Weight Gain at Week 52, HbA1c <7.0%: Absolute difference in % / No Weight Gain at Week 52, reduction in HbA1c ≥0.5%: Absolute difference in % / No Weight Gain at Week 52: % with absolute reduction in HbA1c ≥0.5% / No Weight Gain at Week 52: Percentage HbA1c <7.0% / Weight, LS Mean (SE) kg: Percent Change (%) from Baseline at Week 24 / Weight, LS Mean (SE) kg: Percent Change (%) from Baseline at Week 52 / Weight, LS Mean (SE): Treatment Comparison vs. PBO, Week 24 / Weight, LS Mean (SE): Treatment Comparison vs. PBO, Week 52 / Any TEAE, n (%) / Diarrhea, n (%) / Genital mycotic infection, n (%) / HbA1c change from Baseline, Week 52 Treatment Comparison LS Mean (SE), %: overall cohort; for HbA1c change from Baseline, Week 24 Treatment Comparison LS Mean (SE), % / HbA1c change from Baseline, Week 52 Treatment Comparison LS Mean (SE), %: vs placebo
Protocol: The efficacy of sotagliflozin as adjunct therapy in adult patients with type 1 diabetes mellitus who have inadequate glycemic control with insulin therapy was evaluated in two multicenter, double-blind clinical studies named “in Tandem1” and “in Tandem2”. Patients were randomized into three treatment groups: those treated with sotagliflozin 200 mg/day, those treated with sotagliflozin 400 mg/day; and those treated with placebo.
Details of the in Tandem1 study have been reported. See, e.g., Buse, J. B., et al., “Sotagliflozin in Combination With Optimized Insulin Therapy in Adults With Type 1 Diabetes: The North American in Tandem1 Study” Diabetes Care 2018; 41: 1970-1980. Details of the in Tandem2 study have also been reported. See, e.g., Danne. T., et al., “HbA and Hypoglycemia 1c Reductions at 24 and 52 Weeks With Sotagliflozin in Combination With Insulin in Adults With Type 1 Diabetes: The European in Tandem2 Study” Diabetes Care 2018; 41: 1981-1990. Both studies included men and nonpregnant women aged≥18 years with T1D using either multiple daily injections (MDI) or subcutaneous insulin infusion (SCII) for insulin delivery and whose HbA1C was 7.0-11.0% at screening. Patients with β-hydroxybutyrate (BHB) levels>0.6 mmol/L at screening were excluded.
In both studies, insulin therapy was optimized for six weeks prior to randomization, and optimized insulin continued until the study conclusion at week 52. After a two-week placebo run-in, patients were randomly assigned to double-blind treatment with sotagliflozin 200 or 400 mg or placebo for 52 weeks. Insulin optimization, which refers to the adjustment of insulin to meet standard-of-care glycemic targets, starting six weeks prior to randomization and continued for the entire study. An independent insulin dose monitoring committee (IDMC) assessed standard-of-care adherence and provided feedback to the principal investigator if deviations from standard of care were observed prior to week 24. HbA1c was masked to study staff during this period. Between week 24 and 52, insulin optimization continued without input from the IDMC, and HbA1c values were unmasked. Safety was monitored for 30 days after the last dose of study medication.
The primary endpoint of both studies was the change from baseline to week 24 in glycated hemoglobin A1C of either dose of sotagliflozin (400 mg or 200 mg) treatment group compared to placebo. Other endpoints included the change from baseline of sotagliflozin versus placebo in: the proportion of patients with A1C<7.0% and no episode of severe hypoglycemia and no episode of DKA; body weight, bolus insulin dose, fasting plasma glucose (FPG), diabetes treatment satisfaction questionnaire status (DTSQs) score; and Diabetes Distress Screening Scale (DDS2) questionnaire score.
Efficacy analyses were based on the mITT (modified Intent-to-Treat) population. Primary efficacy analyses were conducted based on data collected during the Core Treatment Period (Baseline through and including the week 24 visit assessments). As shown below in Table 2, sotagliflozin achieved its primary endpoint by leading to statistically significant lower A1C levels for both doses when compared to placebo in the pooled in Tandem1/in Tandem2 study results after the core treatment and long-term extension periods.

[2] = tested on: patients with type 1 diabetes receiving insulin therapy (overall and CKD cohorts); test: inTandem3 phase 3, double-blind trial, sotagliflozin 400 mg per day vs placebo for 24 weeks; format: in vivo, human; details: for placebo-adjusted systolic blood pressure, least-squared mean change: after 16 weeks; for DKA, HR (95% CI) / Severe hypoglycemia, HR (95% CI): 400 mg/day vs placebo
Protocol: The in Tandem3 study was a phase 3, double-blind trial conducted at 133 centers worldwide. In the study, 1402 patients with type 1 diabetes who were receiving treatment with insulin therapy (pump or injections) were randomly assigned to receive sotagliflozin (400 mg per day) or placebo for 24 weeks. The primary end point was a glycated hemoglobin level lower than 7.0% at week 24 with no episodes of severe hypoglycemia or diabetic ketoacidosis after randomization. Secondary end points included the change from baseline in glycated hemoglobin level, weight, systolic blood pressure, and mean daily bolus dose of insulin. Specific details of the study were reported in Garg, S. K., et al., “Effects of Sotagliflozin Added to Insulin in Patients with Type 1 Diabetes” N. Engl. J. Med. 2017:377:2337-48.
The rate of severe hypoglycemia was similar in the sotagliflozin group and the placebo group (3.0% [21 patients] and 2.4% [17 patients], respectively). […] The rate of DKA was higher in the sotagliflozin group than in the placebo group (3.0% [21 patients] and 0.6%, respectively). Id. at 2337.
For this invention, data from CKD patients were compared to those of the overall cohort. As shown below, 16% of patients had CKD at baseline: […]

[3] = tested on: T1D patients; details: cited from earlier work
[4] = 200 mg/day vs placebo, CKD Cohort, 52 weeks
[5] = 200 mg/day vs placebo, Overall Cohort, 52 weeks
[6] = 200 mg/day, CKD Cohort N = 85, 52 weeks
[7] = 200 mg/day, overall cohort N = 524, positively adjudicated, through 52 Weeks
[8] = 400 mg/day vs placebo, CKD Cohort, 52 weeks
[9] = 400 mg/day vs placebo, Overall Cohort, 52 weeks
[10] = 400 mg/day, CKD Cohort N = 76, 52 weeks
[11] = 400 mg/day, overall cohort N = 525, positively adjudicated, through 52 Weeks
[12] = 400 mg per day, overall population
[13] = 400 mg/day, CKD Cohort N = 115, 24 weeks

## CCOc1ccc(Cc2cc([C@@H]3O[C@H](SC)[C@@H](O)[C@H](O)[C@H]3O)ccc2Cl)cc1 [sotagliflozin, (2S,3R,4R,5S,6R)-2-(4-chloro-3-(4-ethoxybenzyl)phenyl)-6-(methylthio)tetrahydro-2H-pyran-3,4,5-triol]
[1]; 200 mg/day vs PBO
  No Weight Gain at Week 52, HbA1c <7.0%: Absolute difference in %: 12.6%
  No Weight Gain at Week 52, reduction in HbA1c ≥0.5%: Absolute difference in %: 14.9%
[1]; [4]
  DKA, HR (95% CI): 3.2 (0.4, 29.0)
  Severe hypoglycemia, HR (95% CI): 0.34 (0.13, 0.91)
[1]; [5]
  DKA, HR (95% CI): 15.0 (2.0, 113.3)
  Severe hypoglycemia, HR (95% CI): 0.76 (0.47, 1.22)
[1]; [6]
  DKA, n (%): 4 (4.7) n (%)
  Severe hypoglycemia, n (%): 6 (7.1) n (%)
[1]; 200 mg/day
  No Weight Gain at Week 52: % with absolute reduction in HbA1c ≥0.5%: 23.7%
  No Weight Gain at Week 52: Percentage HbA1c <7.0%: 21.8%
  Weight, LS Mean (SE) kg: Percent Change (%) from Baseline at Week 24: −1.70 (0.137) %
  Weight, LS Mean (SE) kg: Percent Change (%) from Baseline at Week 52: −2.31 (0.208) %
  Weight, LS Mean (SE): Treatment Comparison vs. PBO, Week 24: −2.17 (0.188) %
  Weight, LS Mean (SE): Treatment Comparison vs. PBO, Week 52: −3.21 (0.291) %
  HbA1c change from Baseline, Week 52 Treatment Comparison LS Mean (SE), %: −0.23%
[1]; [7]
  DKA, n (%): 15 (2.9) n (%)
  Severe hypoglycemia, n (%): 30 (5.7) n (%)
[1]; 200 mg/day, overall cohort n = 524
  HbA1c change from Baseline, Week 24 Treatment Comparison LS Mean (SE), %: −0.36%
[1]; 200 mg/day, through 52 Weeks
  Any TEAE, n (%): 393 (75.0) n (%)
  Diarrhea, n (%): 34 (6.5) n (%)
  Genital mycotic infection, n (%): 48 (9.2) n (%)
[1]; 400 mg/day vs PBO
  No Weight Gain at Week 52, HbA1c <7.0%: Absolute difference in %: 17.0%
  No Weight Gain at Week 52, reduction in HbA1c ≥0.5%: Absolute difference in %: 20.0%
[1]; [8]
  DKA, HR (95% CI): 1.9 (0.2, 20.8)
  Severe hypoglycemia, HR (95% CI): 0.2 (0.06, 0.70)
[1]; [9]
  DKA, HR (95% CI): 20.3 (2.7, 151.2)
  Severe hypoglycemia, HR (95% CI): 0.58 (0.35, 0.97)
[1]; [10]
  DKA, n (%): 2 (2.6) n (%)
  Severe hypoglycemia, n (%): 3 (3.9) n (%)
[1]; 400 mg/day
  No Weight Gain at Week 52: % with absolute reduction in HbA1c ≥0.5%: 28.8%
  No Weight Gain at Week 52: Percentage HbA1c <7.0%: 26.1%
  Weight, LS Mean (SE) kg: Percent Change (%) from Baseline at Week 24: −2.55 (0.137) %
  Weight, LS Mean (SE) kg: Percent Change (%) from Baseline at Week 52: −3.33 (0.209) %
  Weight, LS Mean (SE): Treatment Comparison vs. PBO, Week 24: −3.02 (0.188) %
  Weight, LS Mean (SE): Treatment Comparison vs. PBO, Week 52: −4.24 (0.291) %
  HbA1c change from Baseline, Week 52 Treatment Comparison LS Mean (SE), %: −0.32%
[1]; [11]
  DKA, n (%): 20 (3.8) n (%)
  Severe hypoglycemia, n (%): 23 (4.4) n (%)
[1]; 400 mg/day, overall cohort n = 525
  HbA1c change from Baseline, Week 24 Treatment Comparison LS Mean (SE), %: −0.38%
[1]; 400 mg/day, through 52 Weeks
  Any TEAE, n (%): 390 (74.3) n (%)
  Diarrhea, n (%): 46 (8.8) n (%)
  Genital mycotic infection, n (%): 63 (12.0) n (%)
[1]; patients with BMI≥27 kg/m^2 compared to the lower BMI subgroup, Week 24
  efficacy (A1C, body weight, DTSQ change from baseline) by BMI subgroup: systematically better
[1]; sotagliflozin compared to placebo in the CKD cohort
  relative risk of severe hypoglycemia: lower
[1]; sotagliflozin relative to placebo in the CKD cohort
  relative risk of DKA: not significantly higher
[1]; to a similar extent as the overall cohort
  A1C and BW in the CKD subgroup: significantly reduced
[2]; 400 mg per day, CKD group, SE=1.81
  placebo-adjusted systolic blood pressure, least-squared mean change: −7.1 mm Hg
[2]; 400 mg per day, CKD group, after 24 weeks, SE=0.120
  placebo-adjusted change in HbA1C, least-squared mean: −0.46%
[2]; 400 mg per day, CKD group, after 24 weeks, SE=0.464
  placebo-adjusted change in body weight, least-squared mean: -2.82 kg
[2]; 400 mg per day, of 699 patients
  number of patients achieving the primary end point: 200 patients
[2]; [12]
  mean daily bolus dose of insulin, least-squares mean change from baseline, difference vs placebo: −2.8 units per day
  proportion of patients achieving the primary end point (glycated hemoglobin lower than 7.0% at week 24 with no severe hypoglycemia or DKA): 28.6%
  systolic blood pressure, least-squares mean change from baseline, difference vs placebo: −3.5 mm Hg
[2]; 400 mg per day, overall population, 24 weeks
  glycated hemoglobin, least-squares mean change from baseline, difference vs placebo: −0.46 percentage points
[2]; 400 mg per day, total, overall population, SE=0.57
  placebo-adjusted systolic blood pressure, least-squared mean change: −3.8 mm Hg
[2]; 400 mg per day, total, overall population, after 24 weeks
  placebo-adjusted change in body weight, least-squares mean: -2.98 kg
[2]; 400 mg per day, total, overall population, after 24 weeks, SE=0.042
  placebo-adjusted change in HbA1C, least-squared mean: −0.46%
[2]; CKD Cohort, 24 weeks
  DKA, HR (95% CI): 3.5
  Severe hypoglycemia, HR (95% CI): 1.7
[2]; Overall Cohort, 24 weeks
  DKA, HR (95% CI): 5.5
  Severe hypoglycemia, HR (95% CI): 1.3
[2]; [13]
  DKA, %: (2.6) %
  Severe hypoglycemia, %: (7.0) %
[2]; sotagliflozin group vs placebo group
  rate of documented hypoglycemia with a blood glucose level of 55 mg per deciliter (3.1 mmol per liter) or below: significantly lower
[3]
  albuminuria: reduction in albuminuria
  blood pressure: lowered blood pressure
  eGFR: acute change in eGFR
  hemoconcentration: induced mild hemoconcentration
  risk of diabetic ketoacidosis (DKA): increased
